Data published in patent US20120270884A1, “Methods of Treating Aneurysmal Dilatation, Blood Vessel Wall Weakness and Specifically Abdominal Aortic and Thoracic Aneurysm Using Matrix Metalloprotease-2 Inhibitors” (SYMPHONY EVOLUTION, INC., priority 2009, published 2012).

Columns and labels:
Format in all cases: biochemical
MMP-3 (Stromelysin-1) = MMP-3 (Stromelysin-1) (Homo sapiens, UniProt P08254); experiment: In vitro metalloprotease inhibition, MMP-3
Source text: (§1) Blank cells indicate lack of data only.

[1] = target: T1, MMP-2 (72 kDa gelatinase, gelatinase A) (Homo sapiens, UniProt P08253); experiment: In vitro metalloprotease inhibition, MMP-2
T1 sequence (P08253 110-660): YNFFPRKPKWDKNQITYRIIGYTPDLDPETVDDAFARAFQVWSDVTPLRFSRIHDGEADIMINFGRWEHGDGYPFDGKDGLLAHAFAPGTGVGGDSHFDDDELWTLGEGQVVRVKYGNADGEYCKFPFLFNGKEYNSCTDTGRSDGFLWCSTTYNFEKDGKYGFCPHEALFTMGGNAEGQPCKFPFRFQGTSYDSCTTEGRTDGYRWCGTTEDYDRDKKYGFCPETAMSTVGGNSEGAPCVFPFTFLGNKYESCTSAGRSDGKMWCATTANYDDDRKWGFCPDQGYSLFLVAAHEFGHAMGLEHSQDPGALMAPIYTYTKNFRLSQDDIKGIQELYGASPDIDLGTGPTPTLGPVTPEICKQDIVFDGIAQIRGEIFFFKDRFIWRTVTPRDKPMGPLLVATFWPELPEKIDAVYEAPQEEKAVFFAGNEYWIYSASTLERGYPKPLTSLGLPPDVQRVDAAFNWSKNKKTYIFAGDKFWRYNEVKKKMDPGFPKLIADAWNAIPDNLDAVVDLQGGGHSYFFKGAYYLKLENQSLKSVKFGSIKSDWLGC

[2] = target: T2, MMP-1 (Fibroblast collagenase) (Homo sapiens, UniProt P03956); experiment: In vitro metalloprotease inhibition, MMP-1
T2 sequence (P03956 100-469): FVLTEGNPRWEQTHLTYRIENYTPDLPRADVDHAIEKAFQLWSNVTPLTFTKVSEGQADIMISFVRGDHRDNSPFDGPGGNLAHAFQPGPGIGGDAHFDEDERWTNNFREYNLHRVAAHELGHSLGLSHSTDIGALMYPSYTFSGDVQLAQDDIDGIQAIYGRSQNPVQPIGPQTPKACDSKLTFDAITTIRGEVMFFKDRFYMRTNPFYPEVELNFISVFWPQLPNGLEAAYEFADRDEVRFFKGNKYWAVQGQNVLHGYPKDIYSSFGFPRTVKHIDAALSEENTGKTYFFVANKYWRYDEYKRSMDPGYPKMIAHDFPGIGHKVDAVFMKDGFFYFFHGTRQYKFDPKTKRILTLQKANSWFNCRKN
Source text: as §1

MMP-13 (collagenase-3) = MMP-13 (collagenase-3) (Homo sapiens, UniProt P45452); experiment: In vitro metalloprotease inhibition, MMP-13
[3] = target: TACE (TNF-alpha converting enzyme, ADAM-17) (Homo sapiens, UniProt P78536); experiment: In vitro metalloprotease inhibition, TACE
TACE (TNF-alpha converting enzyme, ADAM-17), sequence (P78536 215-824): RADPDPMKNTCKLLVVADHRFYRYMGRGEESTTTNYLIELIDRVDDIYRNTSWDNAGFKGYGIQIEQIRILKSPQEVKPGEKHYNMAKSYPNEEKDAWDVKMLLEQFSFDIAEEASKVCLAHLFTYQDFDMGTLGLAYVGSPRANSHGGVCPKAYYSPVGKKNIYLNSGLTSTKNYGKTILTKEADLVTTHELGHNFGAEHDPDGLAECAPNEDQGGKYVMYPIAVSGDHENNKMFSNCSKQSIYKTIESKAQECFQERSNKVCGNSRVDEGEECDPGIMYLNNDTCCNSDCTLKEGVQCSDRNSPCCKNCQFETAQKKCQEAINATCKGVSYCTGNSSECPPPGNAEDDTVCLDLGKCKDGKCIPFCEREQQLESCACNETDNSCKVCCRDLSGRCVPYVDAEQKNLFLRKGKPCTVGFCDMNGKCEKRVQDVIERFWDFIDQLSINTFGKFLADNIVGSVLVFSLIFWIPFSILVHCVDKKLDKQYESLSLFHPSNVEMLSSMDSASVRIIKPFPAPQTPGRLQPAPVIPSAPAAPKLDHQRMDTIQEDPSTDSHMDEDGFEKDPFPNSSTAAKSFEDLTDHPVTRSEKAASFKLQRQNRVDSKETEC
Source text: as §1

MMP-3 (Stromelysin-1), sequence (P08254 100-477, species assumed): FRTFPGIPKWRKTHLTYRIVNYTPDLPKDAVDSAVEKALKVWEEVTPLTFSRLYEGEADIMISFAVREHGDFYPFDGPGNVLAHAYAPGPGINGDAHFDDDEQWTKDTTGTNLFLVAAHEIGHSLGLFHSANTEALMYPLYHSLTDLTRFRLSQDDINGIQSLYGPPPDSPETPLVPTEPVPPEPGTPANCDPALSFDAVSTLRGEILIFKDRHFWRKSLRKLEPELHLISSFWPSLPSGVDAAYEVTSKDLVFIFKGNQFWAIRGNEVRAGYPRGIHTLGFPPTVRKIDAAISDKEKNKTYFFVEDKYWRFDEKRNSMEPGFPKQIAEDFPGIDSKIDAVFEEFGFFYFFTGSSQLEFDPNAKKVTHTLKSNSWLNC

Row | IC50 (MMP-3 (Stromelysin-1)) [nM] | IC50 [1] [nM] | IC50 [2] [nM] | IC50 (MMP-13 (collagenase-3)) [nM] | IC50 [3] [nM] | SMILES
1 | < 50 | < 50 | 1000 to 20000 | < 50 | 50 to 1000 | O=C(NO)[C@H]1CN(S(=O)(=O)NC(=O)N2CCOCC2)CCN1S(=O)(=O)c1cc(F)c(Oc2ccc(Cl)cc2)c(F)c1 [Entry 38]
2 | < 50 | < 50 | 1000 to 20000 | < 50 | 50 to 1000 | O=C(NO)[C@H]1CN(S(=O)(=O)NC(=O)N2CCCCC2)CCN1S(=O)(=O)c1cc(F)c(Oc2ccc(Cl)cc2)c(F)c1 [Entry 37]
3 | 50 to 1000 | < 50 | 1000 to 20000 | < 50 | < 50 | O=C(NO)[C@H]1CN(S(=O)(=O)Cc2ccncc2)CCN1S(=O)(=O)c1cc(F)c(Oc2ccc(Cl)cc2)c(F)c1 [Entry 34]
4 | 50 to 1000 | < 50 | 1000 to 20000 | < 50 | 50 to 1000 | O=C(NO)[C@H]1CN(C(=O)c2cccnc2)CCN1S(=O)(=O)c1cc(F)c(Oc2ccc(Cl)cc2)c(F)c1 [Entry 59]
5 | 50 to 1000 | < 50 | 1000 to 20000 | < 50 | 50 to 1000 | O=C(NO)[C@H]1CN(C(=O)C(=O)N2CCOCC2)CCN1S(=O)(=O)c1cc(F)c(Oc2ccc(Cl)cc2)c(F)c1 [Entry 31]
6 | 50 to 1000 | < 50 | 1000 to 20000 | < 50 | 50 to 1000 | O=C(NO)[C@H]1CN(S(=O)(=O)c2cccnc2O)CCN1S(=O)(=O)c1cc(F)c(Oc2ccc(Cl)cc2)c(F)c1 [Entry 45]
7 | 1000 to 20000 | < 50 | 1000 to 20000 | < 50 | – | O=C(NO)[C@H]1CN(C(=O)c2ccncc2)CCN1S(=O)(=O)c1cc(F)c(Oc2ccc(Cl)cc2)c(F)c1 [Entry 42]
8 | 1000 to 20000 | < 50 | > 20000 | < 50 | – | O=C(NO)[C@H]1CN(C(=O)CN2CCCCC2)CCN1S(=O)(=O)c1cc(F)c(Oc2ccc(Cl)cc2)c(F)c1 [Entry 26]
9 | 1000 to 20000 | < 50 | > 20000 | < 50 | – | CN(C)C(=O)CN1CCN(S(=O)(=O)c2cc(F)c(Oc3ccc(Cl)cc3)c(F)c2)[C@@H](C(=O)NO)C1 [Entry 20]
10 | 50 to 1000 | < 50 | 1000 to 20000 | < 50 | – | O=C(NO)[C@H]1CN(C(=O)C(=O)N2CCCCC2)CCN1S(=O)(=O)c1cc(F)c(Oc2ccc(Cl)cc2)c(F)c1 [Entry 35]
11 | 1000 to 20000 | 50 to 1000 | > 20000 | > 20000 | – | O=C(NO)[C@H]1CNCCN1S(=O)(=O)c1cc(F)c(Oc2ccc(F)cc2)c(F)c1 [Entry 11]
12 | 50 to 1000 | < 50 | 1000 to 20000 | < 50 | – | O=C(NO)[C@H]1CN(C(=O)NCCN2CCCC2)CCN1S(=O)(=O)c1cc(F)c(Oc2ccc(Cl)cc2)c(F)c1 [Entry 17]
13 | 1000 to 20000 | < 50 | > 20000 | 50 to 1000 | – | CCCC(CCC)C(=O)N1CCN(S(=O)(=O)c2cc(F)c(Oc3ccc(Cl)cc3)c(F)c2)[C@@H](C(=O)NO)C1 [Entry 44]
14 | 50 to 1000 | < 50 | > 20000 | < 50 | – | O=C(NO)[C@H]1CN(C(=O)CN2CCOCC2)CCN1S(=O)(=O)c1cc(F)c(Oc2ccc(Cl)cc2)c(F)c1 [Entry 25]
15 | 1000 to 20000 | < 50 | > 20000 | < 50 | – | CN1CCN(CC(=O)N2CCN(S(=O)(=O)c3cc(F)c(Oc4ccc(Cl)cc4)c(F)c3)[C@@H](C(=O)NO)C2)CC1 [Entry 24]
16 | 1000 to 20000 | < 50 | 50 to 1000 | < 50 | – | COCCOC(=O)N1CCN(S(=O)(=O)c2ccc(Oc3ccc(F)cc3)c(F)c2)[C@@H](C(=O)NO)C1 [Entry 3]
17 | < 50 | < 50 | 50 to 1000 | < 50 | – | COCCOC(=O)N1CCN(S(=O)(=O)c2ccc(Oc3ccc(Cl)cc3)c(F)c2)[C@@H](C(=O)NO)C1 [Entry 4]
18 | 1000 to 20000 | < 50 | > 20000 | < 50 | – | C=CCN1CCN(S(=O)(=O)c2cc(F)c(Oc3ccc(Cl)cc3)c(F)c2)[C@@H](C(=O)NO)C1 [Entry 62]
19 | < 50 | < 50 | < 50 | < 50 | – | COCCOC(=O)N1CCN(S(=O)(=O)c2ccc(Oc3ccc(F)cc3)cc2)[C@@H](C(=O)NO)C1 [Entry 1]
20 | < 50 | < 50 | 50 to 1000 | < 50 | < 50 | CN(C)CCS(=O)(=O)N1CCN(S(=O)(=O)c2cc(F)c(Oc3ccc(Cl)cc3)c(F)c2)[C@@H](C(=O)NO)C1 [Entry 54]
21 | 50 to 1000 | < 50 | 1000 to 20000 | < 50 | – | CN1CCN(CCS(=O)(=O)N2CCN(S(=O)(=O)c3cc(F)c(Oc4ccc(Cl)cc4)c(F)c3)[C@@H](C(=O)NO)C2)CC1 [Entry 55]
22 | 1000 to 20000 | 50 to 1000 | > 20000 | 50 to 1000 | – | O=C(O)CN1CCN(S(=O)(=O)c2cc(F)c(Oc3ccc(Cl)cc3)c(F)c2)[C@@H](C(=O)NO)C1 [Entry 63]
23 | 1000 to 20000 | < 50 | 1000 to 20000 | < 50 | – | COCCOC(=O)N1CCN(S(=O)(=O)c2cc(F)c(Oc3ccc(F)cc3)c(F)c2)[C@@H](C(=O)NO)C1 [Entry 10]
24 | 1000 to 20000 | < 50 | > 20000 | < 50 | – | CCOC(=O)N1CCN(CC(=O)N2CCN(S(=O)(=O)c3cc(F)c(Oc4ccc(Cl)cc4)c(F)c3)[C@@H](C(=O)NO)C2)CC1 [Entry 23]
25 | 50 to 1000 | < 50 | > 20000 | < 50 | – | O=C(NO)[C@H]1CN(C(=O)OCCN2CCCC2)CCN1S(=O)(=O)c1cc(F)c(Oc2ccc(Cl)cc2)c(F)c1 [Entry 18]
26 | < 50 | < 50 | 50 to 1000 | < 50 | – | N#Cc1ccc(Oc2ccc(S(=O)(=O)N3CCN(C(=O)N4CCOCC4)C[C@@H]3C(=O)NO)cc2F)cc1 [Entry 7]
